Earlier results as cited in patent US8187607B2, “Hapten-carrier conjugates and uses thereof” (Cytos Biotechnology AG, priority 2002, dated 2012).

Tested on: cigarette smokers
Settings: at 12 months

CC(NC(C)(C)C)C(=O)c1cccc(Cl)c1 (stereo not shown) [bupropion]
Abstinence rates: about 30%
